Here are results for one molecule from patent publication US20250296971A1, “GASTRIC INHIBITORY PEPTIDE RECEPTOR LIGANDS” (priority 2021, published 2025).

*1 amine or outer side, *2 acyl side, *3 side chain or, on linkers, in order; H or OH if unused. Where a SMILES comes first, the peptide text is derived from it. Bridges are numbered along the chain shown (N, C = ends). [ ]: non-standard residue; d: D form. The star is where a group is joined. NH(1-deoxy-D-glucityl) = OC[C@@H](O)[C@@H](O)[C@H](O)[C@@H](O)CN*; DOTA = O=C(O)CN1CCN(CC(=O)O)CCN(CC(=O)*)CCN(CC(=O)O)CC1; Trp(5-Cl) = N[C@@H](Cc1c[nH]c2ccc(Cl)cc12)C(=O)O; Pyridine(2,6-diCH2) = c1cc(C[*:1])nc(C[*:2])c1; Pro(4R-NH2) = N[C@H]1CN[C@H](C(=O)O)C1; Glutaryl = O=C(CCCC(=O)[*:2])[*:1]; X1 = O=C(CN1CCC(N[*:1])CC1)[*:2]; Api = NC1(C(=O)O)CCNCC1

Series [1] addresses T1, human GIP receptor (bioGIPR) (Homo sapiens, UniProt P48546).
T1 construct: Biotinylate extracellular of the human GIP receptor (bioGIPR, Proteros biostructures GmbH, lot #02/2b); purchased Proteros biostructures GmbH lot #02/2b
T1 sequence (P48546 22-138 limits assumed): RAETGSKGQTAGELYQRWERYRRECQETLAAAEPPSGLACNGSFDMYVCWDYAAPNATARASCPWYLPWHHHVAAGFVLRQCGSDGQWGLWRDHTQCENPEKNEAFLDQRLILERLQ
Nature of the series: Surface plasmon resonance (SPR) based binding assay. To be noted: Single Cycle Kinetic mode, 25° C. In short, it runs like this: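 Binding was measured at 25 °C by single-cycle kinetics against a reference flow cell, with blank-run and drift correction, after capturing biotinylated GIPR extracellular domain to ~3500 RU. Running buffer: HBST, 0.1% DMSO. A 1:1 Langmuir model gave kinetic rates, KD, t1/2 and pKD.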
(In general: In SPR one partner is held on a chip, and binding of the other changes the refractive index at the surface.)

Series [2] in a line: Plasma stability assay, human plasma. It counts as in vitro ADME. The note with it: 37° C., % intact compound remaining after 4 h or 24 h. As for the experimental part:
In order to determine the stability of selected compounds of the invention in human and mouse plasma, a plasma stability assay was carried out. Such plasma stability assay measures degradation of compounds of the present invention in blood plasma. This is an important characteristic of a compound as compounds, with the exception of pro-drugs, which rapidly degrade in plasma, generally show poor in vivo efficacy. […] The stability is sufficient for the diagnostic, therapeutic and theragnostic use of these compounds according to the present invention.
The plasma stability samples were prepared by spiking 50 μL plasma aliquots (all K2EDTA) with 1 μL of a 0.5 mM compound stock solution in DMS0. After vortexing the samples were incubated in a Thermomixer at 37° C. for 0, 4 and 24 hours. After incubation the samples were stored on ice until further treatment. All samples were prepared in duplicates.
A suitable internal standard was added to each sample (1 μL of a 0.5 mM stock solution in DMSO). Protein precipitation was performed by addition of 250 μL of acetonitrile containing 1% trifluoroacetic acid. After incubation at room temperature for 30 min the precipitate was separated by centrifugation and 150 μL of the supernatant was diluted with 150 μL of 1% aqueous formic acid.
Additionally, recovery was determined by spiking a pure plasma sample that only contained the internal standard after treatment with a certain amount of the compound.
Carry-over was evaluated by analysis of a blank sample (20% acetonitrile) after the highest calibration sample.

Take `CC[C@H](C)[C@@H]1NC(=O)[C@H](CC(C)C)NC(=O)C2(CCN(C(=O)CN3CCN(CC(=O)O)CCN(CC(=O)O)CCN(CC(=O)O)CC3)CC2)NC(=O)[C@@H](NC(=O)[C@@H](CC(C)C)NC(=O)[C@H](CCC(=O)O)NC(=O)[C@@H]2C[C@@H](N)CN2C(=O)[C@H](Cc2c[nH]c3ccc(Cl)cc23)NC(=O)[C@H](Cc2c[nH]c3ccccc23)NC(=O)[C@H](CC(=O)O)NC(=O)CCCC(=O)NC[C@H](O)[C@@H](O)[C@H](O)[C@H](O)CO)CSCc2cccc(n2)CSC[C@@H](C(=O)NC2CCN(CC(=O)N[C@H](CCC(=O)NC[C@H](O)[C@@H](O)[C@H](O)[C@H](O)CO)C(N)=O)CC2)NC1=O` [GIP-001, AGLU-Glutar-Asp-Trp-5Clw-Tap-Glu-leu-[Cys(2Lut)-Apc(DOTA)-Leu-Ile-Cys]-APAc-glu(AGLU)-NH2] ({NH(1-deoxy-D-glucityl)-Glutaryl}-DW[Trp(5-Cl)][Pro(4R-NH2)]E[dL]C[Api](DOTA)LIC[X1][dE](NH(1-deoxy-D-glucityl))-NH2; linker 7-11 via Pyridine(2,6-diCH2)): the “t1/2 Category” value in series [1] (SPR dissociation half-life) was “A (t1/2 values>15 min)”. In addition, the Kd in series [1] (SPR, 1:1 Langmuir binding model, read-out: pKD Category (converted)) is less than 1 nM. In addition, in series [2], the “Human plasma stability category” value is on record as “A (>80% intact after 24 hours)”.
